Results from patent US4515941A, “23-Demycinosyldesmycosin derivatives” (Toyo Jozo Kabushiki Kaisha, priority 1982, dated 1985).
Values after ≈ are worked out from the molar mass of the structure shown. Like-named read-outs stand apart in the source and are kept apart here.

What was measured:
Type in all cases: cell-based
[1] = test system: Staphylococcus aureus ATCC 6538P; experiment: MIC, Staphylococcus aureus ATCC 6538P; details: ATCC6538P
[2] = test system: Staphylococcus aureus MS353; experiment: MIC, Staphylococcus aureus MS353
[3] = test system: Staphylococcus aureus MS353 A0; experiment: MIC, Staphylococcus aureus MS353 A0 (macrolide resistant); details: MS353A0, macrolide resistant bacteria A group
From the text: (§1) *macrolide resistant bacteria A group (clinical isolates of erythromycin,
(§2) oleandomycin and 16membered macrolide antibiotic resistant strains.)

[4] = test system: Staphylococcus epidermis sp-al-1; experiment: MIC, Staphylococcus epidermis sp-al-1
[5] = test system: Streptococcus pyogenes N.Y.5; experiment: MIC, Streptococcus pyogenes N.Y.5
[6] = test system: Streptococcus pyogenes 1022; experiment: MIC, Streptococcus pyogenes 1022 (macrolide resistant); details: macrolide resistant bacteria A group
From the text: as §1, §2

[7] = test system: Streptococcus faecalis 1501; experiment: MIC, Streptococcus faecalis 1501
[8] = test system: Streptococcus agalactiae 1020; experiment: MIC, Streptococcus agalactiae 1020
Sarcina lutea ATCC 9341 = experiment: MIC, Sarcina lutea ATCC 9341; details: Micrococcus luteus, ATCC9341
[9] = test system: Bacillus subtilis ATC 6633; experiment: MIC, Bacillus subtilis ATC 6633
[10] = test system: Escherichia coli NIHJ-JC2; experiment: MIC, Escherichia coli NIHJ-JC2; details: NIHJJC2
[11] = test system: Klebsiella pneumoniae ATCC 10031; experiment: MIC, Klebsiella pneumoniae ATCC 10031
Salmonella typhosa H901 = experiment: MIC, Salmonella typhosa H901
Shigella sonnei E33 = experiment: MIC, Shigella sonnei E33
Proteus vulgaris OX19 = experiment: MIC, Proteus vulgaris OX19
[12] = test system: Pseudomonas aeruginosa IAM 1095; experiment: MIC, Pseudomonas aeruginosa IAM 1095; details: IAM1095
[13] = test system: Staphylococcus aureus MS353 C36; experiment: MIC, Staphylococcus aureus MS353 C36; details: MS353C36
[14] = test system: Micrococcus flavus ATCC 10240; experiment: MIC, Micrococcus flavus ATCC 10240; details: Micrococcus flavus, ATCC10240
[15] = test system: Corynebacterium diptheriae P.Y.8; experiment: MIC, Corynebacterium diptheriae P.Y.8
Escherichia coli B = experiment: MIC, Escherichia coli B
[16] = test system: Salmonella enteritidis Gaertner; experiment: MIC, Salmonella enteritidis Gaertner; details: Salmonella enterica, ENTERITIDIS
[17] = test system: Shigella flexineri type 3a; experiment: MIC, Shigella flexineri type 3a; details: TYPE3A
Serratia marcescens = experiment: MIC, Serratia marcescens
[18] = test system: Staphylococcus aureus 0127; experiment: MIC, Staphylococcus aureus 0127 (macrolide resistant); details: Staphylococcus aureus 0127; macrolide resistant bacteria A group; read-out: MIC
From the text: as §1, §2

[19] = Staphylococcus aureus MS353, read-out: MIC
[20] = SPAL1, Staphylococcus epidermis sp-al-1, read-out: MIC
[21] = Streptococcus pyogenes 1022, read-out: MIC
[22] = Enterococcus faecalis, Streptococcus faecalis 1501, read-out: MIC
[23] = Streptococcus agalactiae 1020, read-out: MIC
[24] = ATC6633, Bacillus subtilis ATC 6633, read-out: MIC
[25] = ATCC10031, Klebsiella pneumoniae ATCC 10031, read-out: MIC
[26] = Proteus vulgaris OX19, read-out: MIC
[27] = Pseudomonas aeruginosa IAM 1095, read-out: MIC
[28] = Enterococcus faecalis, 1501, Streptococcus faecalis 1501
[29] = Bacillus subtilis, ATC6633, Bacillus subtilis ATC 6633
[30] = Klebsiella pneumoniae, ATCC10031, Klebsiella pneumoniae ATCC 10031
[31] = Proteus vulgaris, OX19, Proteus vulgaris OX19
[32] = Corynebacterium diptheriae P.Y.8, read-out: MIC

Row | SMILES | MIC ([1]; read-out: MIC) [µg/mL] | MIC [2, 19] [µg/mL] | MIC [3] [µg/mL] | MIC [4, 20] [µg/mL] | MIC ([5]; read-out: MIC) [µg/mL] | MIC [6, 21] [µg/mL] | MIC [7, 22] [µg/mL] | MIC [8, 23] [µg/mL] | MIC (Sarcina lutea ATCC 9341) [µg/mL] | MIC [9, 24] [µg/mL] | MIC [10] [µg/mL] | MIC [11, 25] [µg/mL] | MIC (Salmonella typhosa H901; Salmonella enterica, TYPHOSA) [µg/mL] | MIC (Shigella sonnei E33) [µg/mL] | MIC (Proteus vulgaris OX19; [26]) [µg/mL] | MIC [12, 27] [µg/mL] | MIC [15, 32] [µg/mL] | further results
1 | CCC1OC(=O)CC(O)C(C)C(OC2OC(C)C(O)C(N(C)C)C2O)C(CC=O)CC(C)C(=O)C=CC(C)=CC1CSC(C)c1ccccc1 (stereo not drawn) [23-(1-phenylethyl)thio-23-demycinosyl-23-deoxydesmycosin] | 0.2 (≈ 0.279 µM) | 0.2 (≈ 0.279 µM) | 25 (≈ 34.8 µM) | ≤ 0.05 | ≤ 0.05 | 25 (≈ 34.8 µM) | 0.2 (≈ 0.279 µM) | 0.1 (≈ 0.139 µM) | 0.05 (≈ 0.0696 µM) | 0.2 (≈ 0.279 µM) | 50 (≈ 69.6 µM) | 3.1 (≈ 4.32 µM) | 100 (≈ 139 µM) | 50 (≈ 69.6 µM) | 12.5 (≈ 17.4 µM) | > 100 | – | –
2 | CC[C@H]1OC(=O)[C@H](C)[C@@H](O[C@H]2C[C@@](C)(OC)[C@@H](O)[C@H](C)O2)[C@H](C)[C@@H](O[C@@H]2O[C@H](C)C[C@H](N(C)C)[C@H]2O)[C@](C)(O)C[C@@H](C)C(=O)[C@H](C)[C@@H](O)[C@]1(C)O [EM, erythromycin, reference compound] | – | – | – | – | – | – | – | – | ≤ 0.05 | – | 100 (≈ 136 µM) | – | 100 (≈ 136 µM) | 100 (≈ 136 µM) | – | – | – | MIC [13]: 0.4 µg/mL (≈ 0.545 µM); MIC [7, 28]: 0.2 µg/mL (≈ 0.273 µM); MIC [14]: 0.1 µg/mL (≈ 0.136 µM); MIC ([15]; Corynebacterium, P.Y.8): ≤ 0.05 µg/mL; MIC [9, 29]: 0.1 µg/mL (≈ 0.136 µM); MIC (Escherichia coli B): > 100 µg/mL; MIC [11, 30]: 6.3 µg/mL (≈ 8.58 µM); MIC (Salmonella typhosa H901): 50 µg/mL (≈ 68.1 µM); MIC [16]: 100 µg/mL (≈ 136 µM); MIC [17]: 12.5 µg/mL (≈ 17 µM); MIC (Proteus vulgaris OX19; Proteus vulgaris OX19): 25 µg/mL (≈ 34.1 µM); MIC (Proteus vulgaris OX19; [31]): 50 µg/mL (≈ 68.1 µM); MIC (Serratia marcescens): 100 µg/mL (≈ 136 µM); MIC ([12]; Pseudomonas aeruginosa): 100 µg/mL (≈ 136 µM)
3 | CCC1OC(=O)CC(O)C(C)C(OC2OC(C)C(O)C(N(C)C)C2O)C(CC=O)CC(C)C(=O)C=CC(C)=CC1CSCCc1ccccc1 (stereo not drawn) [S(CH2)2 C6 H5, 23-(2-phenylethyl)thio-23-demycinosyl-23-deoxydesmycosin] | 0.1 (≈ 0.139 µM) | 0.1 (≈ 0.139 µM) | 50 (≈ 69.6 µM) | ≤ 0.05 | ≤ 0.05 | – | 0.1 (≈ 0.139 µM) | ≤ 0.05 | ≤ 0.05 | 0.1 (≈ 0.139 µM) | 50 (≈ 69.6 µM) | 3.1 (≈ 4.32 µM) | > 100 | 25 (≈ 34.8 µM) | 12.5 (≈ 17.4 µM) | > 100 | – | MIC ([6]; Streptococcus pyogenes, 1022, Streptococcus pyogenes 1022): 25 µg/mL (≈ 34.8 µM)
4 | CCC1OC(=O)CC(O)C(C)C(OC2OC(C)C(O)C(N(C)C)C2O)C(CC=O)CC(C)C(=O)C=CC(C)=CC1CSCc1ccccc1 (stereo not drawn) [SCH2 C6 H5, 23-benzylthio-23-demycinosyl-23-deoxydesmycosin] | ≤ 0.05 | ≤ 0.05 | 50 (≈ 71 µM) | ≤ 0.05 | ≤ 0.05 | – | ≤ 0.05 | ≤ 0.05 | ≤ 0.05 | 0.1 (≈ 0.142 µM) | 50 (≈ 71 µM) | 1.6 (≈ 2.27 µM) | 50 (≈ 71 µM) | 25 (≈ 35.5 µM) | 6.3 (≈ 8.95 µM) | 100 (≈ 142 µM) | ≤ 0.05 | –
5 | CCC1OC(=O)CC(O)C(C)C(OC2OC(C)C(O)C(N(C)C)C2O)C(CC=O)CC(C)C(=O)C=CC(C)=CC1COC(c1ccccc1)(c1ccccc1)c1ccccc1 (stereo not drawn) [OC(C6 H5)3, 23-O-triphenylmethyl-23-demycinosyldesmycosin] | 1.6 (≈ 1.9 µM) | 1.6 (≈ 1.9 µM) | 6.3 (≈ 7.5 µM) | 1.6 (≈ 1.9 µM) | 0.8 (≈ 0.952 µM) | 3.1 (≈ 3.69 µM) | 1.6 (≈ 1.9 µM) | 1.6 (≈ 1.9 µM) | 0.4 (≈ 0.476 µM) | 3.1 (≈ 3.69 µM) | > 100 | > 100 | > 100 | > 100 | > 100 | > 100 | 0.1 (≈ 0.119 µM) | MIC [18]: 25 µg/mL (≈ 29.8 µM)
6 | CCC1OC(=O)CC(O)C(C)C(OC2OC(C)C(O)C(N(C)C)C2O)C(CC=O)CC(C)C(=O)C=CC(C)=CC1COCc1ccccc1 (stereo not drawn) [OCH 2 C6 H5, 23-O-benzyl-23-demycinosyldesmycosin] | ≤ 0.05 | ≤ 0.05 | 50 (≈ 72.7 µM) | ≤ 0.05 | ≤ 0.05 | 3.1 (≈ 4.51 µM) | 0.05 (≈ 0.0727 µM) | ≤ 0.05 | ≤ 0.05 | ≤ 0.05 | 25 (≈ 36.3 µM) | 6.3 (≈ 9.16 µM) | 100 (≈ 145 µM) | 25 (≈ 36.3 µM) | 3.1 (≈ 4.51 µM) | 50 (≈ 72.7 µM) | ≤ 0.05 | MIC [18]: 100 µg/mL (≈ 145 µM)
7 | CC[C@H]1OC(=O)C[C@@H](O)[C@H](C)[C@@H](O[C@@H]2O[C@H](C)[C@@H](O[C@H]3C[C@@](C)(O)[C@@H](O)[C@H](C)O3)[C@H](N(C)C)[C@H]2O)[C@@H](CC=O)C[C@@H](C)C(=O)/C=C/C(C)=C/[C@@H]1CO[C@@H]1O[C@H](C)[C@@H](O)[C@@H](OC)[C@H]1OC [TS, tylosin, reference compound] | – | – | – | – | – | – | – | – | ≤ 0.05 | – | – | – | > 100 | > 100 | – | – | – | MIC ([1]; Staphylococcus aureus): 0.8 µg/mL (≈ 0.873 µM); MIC ([2]; Staphylococcus aureus, MS353, Staphylococcus aureus MS353): 0.8 µg/mL (≈ 0.873 µM); MIC [13]: 0.4 µg/mL (≈ 0.437 µM); MIC ([4]; Staphylococcus, SPAL1, Staphylococcus epidermis sp-al-1): 0.4 µg/mL (≈ 0.437 µM); MIC [5]: 0.1 µg/mL (≈ 0.109 µM); MIC [7, 28]: 0.8 µg/mL (≈ 0.873 µM); MIC ([7]; Streptococcus faecalis 1501): 1.6 µg/mL (≈ 1.75 µM); MIC ([8]; Streptococcus agalactiae 1020): 0.4 µg/mL (≈ 0.437 µM); MIC ([8]; Streptococcus agalactiae, 1020, Streptococcus agalactiae 1020): 0.2 µg/mL (≈ 0.218 µM); MIC [14]: ≤ 0.05 µg/mL; MIC ([15]; Corynebacterium, P.Y.8): ≤ 0.05 µg/mL; MIC [9, 29]: 0.2 µg/mL (≈ 0.218 µM); MIC ([11]; Klebsiella pneumoniae ATCC 10031): 100 µg/mL (≈ 109 µM); MIC [11, 30]: 50 µg/mL (≈ 54.6 µM); MIC [16]: > 100 µg/mL; MIC [17]: 50 µg/mL (≈ 54.6 µM); MIC (Proteus vulgaris OX19; [31]): > 100 µg/mL; MIC (Serratia marcescens): > 100 µg/mL; MIC ([12]; Pseudomonas aeruginosa): > 100 µg/mL
8 | CCC1OC(=O)CC(O)C(C)C(OC2OC(C)C(O)C(N(C)C)C2O)C(CC=O)CC(C)C(=O)C=CC(C)=CC1CSc1ccccc1 (stereo not drawn) [SC6 H5] | 0.1 (≈ 0.145 µM) | 0.1 (≈ 0.145 µM) | 25 (≈ 36.2 µM) | ≤ 0.05 | ≤ 0.05 | 25 (≈ 36.2 µM) | ≤ 0.05 | ≤ 0.05 | ≤ 0.05 | 0.1 (≈ 0.145 µM) | 50 (≈ 72.5 µM) | 1.6 (≈ 2.32 µM) | 50 (≈ 72.5 µM) | 50 (≈ 72.5 µM) | 12.5 (≈ 18.1 µM) | 100 (≈ 145 µM) | ≤ 0.05 | –
